# Source: ChEMBL document CHEMBL4828725 (Eur J Med Chem, 2021)
# Tests used:
# [1] = tested on: Penicillium decumbens; experiment: Inhibition of Penicillium decumbens alpha-L-rhamnosidase using p-nitrophenyl glycoside as substrate assessed as release of p-nitrophenol at 1000 uM measured by spectrometric assay relative to control
# [2] = Inhibition of rice alpha-glucosidase using p-nitrophenyl glycoside as substrate assessed as release of p-nitrophenol measured by spectrometric assay; parameters: species or system Oryza sativa
# [3] = Inhibition of snail beta-mannosidase using p-nitrophenyl glycoside as substrate assessed as release of p-nitrophenol measured by spectrometric assay; parameters: species or system Helix pomatia
# [4] = target: Alpha-galactosidase (Coffea arabica) (UniProt Q42656); experiment: Inhibition of coffee beans alpha-galactosidase using p-nitrophenyl glycoside as substrate assessed as release of p-nitrophenol at 1000 uM measured by spectrometric assay relative to control
# Alpha-galactosidase (Coffea arabica), sequence (Q42656 16-378 limits assumed): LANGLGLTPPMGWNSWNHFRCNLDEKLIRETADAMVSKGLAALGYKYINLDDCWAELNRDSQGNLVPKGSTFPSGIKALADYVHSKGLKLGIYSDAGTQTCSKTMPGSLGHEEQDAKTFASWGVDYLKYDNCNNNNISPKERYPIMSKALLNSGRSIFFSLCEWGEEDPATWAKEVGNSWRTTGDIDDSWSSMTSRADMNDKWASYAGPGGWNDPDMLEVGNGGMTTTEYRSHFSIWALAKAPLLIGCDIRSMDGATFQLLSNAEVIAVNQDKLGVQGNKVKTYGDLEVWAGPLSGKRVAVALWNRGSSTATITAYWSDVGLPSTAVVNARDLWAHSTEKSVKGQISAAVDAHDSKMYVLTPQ
# [5] = target: Alpha-galactosidase (Coffea arabica, UniProt Q42656); experiment: Inhibition of coffee beans alpha-galactosidase using p-nitrophenyl glycoside as substrate assessed as release of p-nitrophenol measured by spectrometric assay
# Alpha-galactosidase, sequence (Q42656 whole entry): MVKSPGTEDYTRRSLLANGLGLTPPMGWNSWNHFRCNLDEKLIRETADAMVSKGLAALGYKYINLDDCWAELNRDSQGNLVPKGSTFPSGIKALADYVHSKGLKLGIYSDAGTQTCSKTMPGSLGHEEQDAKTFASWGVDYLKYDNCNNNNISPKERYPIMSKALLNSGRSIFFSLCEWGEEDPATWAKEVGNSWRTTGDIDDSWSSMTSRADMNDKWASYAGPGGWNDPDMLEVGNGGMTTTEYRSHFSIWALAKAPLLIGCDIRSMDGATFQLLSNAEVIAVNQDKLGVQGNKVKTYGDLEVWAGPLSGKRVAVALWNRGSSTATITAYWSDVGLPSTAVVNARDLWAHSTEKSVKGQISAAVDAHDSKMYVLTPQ
# [6] = tested on: Prunus dulcis; experiment: Inhibition of almond beta-glucosidase using p-nitrophenyl glycoside as substrate assessed as release of p-nitrophenol at 1000 uM measured by spectrometric assay relative to control
# [7] = Inhibition of jack bean alpha-mannosidase using p-nitrophenyl glycoside as substrate assessed as release of p-nitrophenol measured by spectrometric assay; parameters: species or system Canavalia ensiformis
# [8] = target: T1, Tissue alpha-L-fucosidase (Bos taurus, UniProt Q2KIM0); experiment: Inhibition of bovine kidney alpha-L-fucosidase using p-nitrophenyl glycoside as substrate assessed as release of p-nitrophenol measured by spectrometric assay
# T1 sequence (Q2KIM0 whole entry): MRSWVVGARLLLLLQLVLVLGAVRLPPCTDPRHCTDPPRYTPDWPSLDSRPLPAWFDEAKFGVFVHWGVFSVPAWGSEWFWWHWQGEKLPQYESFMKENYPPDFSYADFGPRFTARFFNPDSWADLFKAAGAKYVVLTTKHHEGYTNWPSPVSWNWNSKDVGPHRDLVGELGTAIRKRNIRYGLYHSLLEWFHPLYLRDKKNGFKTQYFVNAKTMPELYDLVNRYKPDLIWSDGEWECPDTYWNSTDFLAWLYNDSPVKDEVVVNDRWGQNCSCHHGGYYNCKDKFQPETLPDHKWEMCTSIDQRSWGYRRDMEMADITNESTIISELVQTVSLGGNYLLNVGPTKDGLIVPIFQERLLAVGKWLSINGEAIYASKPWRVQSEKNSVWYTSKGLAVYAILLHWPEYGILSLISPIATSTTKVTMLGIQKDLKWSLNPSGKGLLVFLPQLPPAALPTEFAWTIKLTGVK
# [9] = Inhibition of bovine liver beta-galactosidase using p-nitrophenyl glycoside as substrate assessed as release of p-nitrophenol measured by spectrometric assay; format: tissue-based, Bos taurus
# [10] = organism: Rattus norvegicus; experiment: Inhibition of rat intestinal maltase using maltose as substrate assessed as release of D-glucose at 1000 uM measured by spectrometric assay
# [11] = target: Beta-glucuronidase (Escherichia coli (strain K12), UniProt P05804); experiment: Inhibition of Escherichia coli beta-glucuronidase using p-nitrophenyl glycoside as substrate assessed as release of p-nitrophenol measured by spectrometric assay
# Beta-glucuronidase, sequence (P05804 whole entry): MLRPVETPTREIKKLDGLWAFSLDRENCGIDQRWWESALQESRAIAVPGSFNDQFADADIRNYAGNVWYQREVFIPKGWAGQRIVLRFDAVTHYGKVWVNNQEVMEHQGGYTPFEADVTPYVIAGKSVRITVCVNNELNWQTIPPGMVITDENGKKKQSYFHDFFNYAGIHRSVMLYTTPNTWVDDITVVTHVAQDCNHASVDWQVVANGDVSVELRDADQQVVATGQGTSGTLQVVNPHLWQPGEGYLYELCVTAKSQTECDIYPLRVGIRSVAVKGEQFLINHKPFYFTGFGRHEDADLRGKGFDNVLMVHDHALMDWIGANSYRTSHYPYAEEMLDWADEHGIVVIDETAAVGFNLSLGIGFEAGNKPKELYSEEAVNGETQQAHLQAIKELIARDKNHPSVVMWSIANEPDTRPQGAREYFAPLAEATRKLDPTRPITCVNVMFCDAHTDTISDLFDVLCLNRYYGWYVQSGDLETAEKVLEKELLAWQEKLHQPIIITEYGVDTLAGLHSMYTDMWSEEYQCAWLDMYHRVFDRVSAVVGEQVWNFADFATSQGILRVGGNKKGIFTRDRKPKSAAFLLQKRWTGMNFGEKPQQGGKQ
# [12] = Inhibition of Aspergillus niger amyloglucosidase using p-nitrophenyl glycoside as substrate assessed as release of p-nitrophenol measured by spectrometric assay
# [13] = tested on: Aspergillus niger; experiment: Inhibition of Aspergillus niger amyloglucosidase using p-nitrophenyl glycoside as substrate assessed as release of p-nitrophenol at 1000 uM measured by spectrometric assay relative to control
# [14] = Inhibition of bovine liver beta-glucosidase using p-nitrophenyl glycoside as substrate assessed as release of p-nitrophenol measured by spectrometric assay; parameters: species or system Bos taurus
# [15] = target: Beta-glucuronidase (Escherichia coli (strain K12)) (UniProt P05804); experiment: Inhibition of Escherichia coli beta-glucuronidase using p-nitrophenyl glycoside as substrate assessed as release of p-nitrophenol at 1000 uM measured by spectrometric assay relative to control
# Beta-glucuronidase (Escherichia coli (strain K12)), sequence (P05804 whole entry, looked up): as the sequence (P05804 whole entry) above
# [16] = organism: Bos taurus; experiment: Inhibition of bovine liver beta-galactosidase using p-nitrophenyl glycoside as substrate assessed as release of p-nitrophenol at 1000 uM measured by spectrometric assay relative to control
# [17] = tested on: Helix pomatia; experiment: Inhibition of snail beta-mannosidase using p-nitrophenyl glycoside as substrate assessed as release of p-nitrophenol at 1000 uM measured by spectrometric assay relative to control
# [18] = organism: Sus scrofa; experiment: Inhibition of porcine kidney alpha-trehalase using p-nitrophenyl glycoside as substrate assessed as release of p-nitrophenol at 1000 uM measured by spectrometric assay relative to control
# [19] = Inhibition of Penicillium decumbens alpha-L-rhamnosidase using p-nitrophenyl glycoside as substrate assessed as release of p-nitrophenol measured by spectrometric assay
# [20] = Inhibition of porcine kidney alpha-trehalase using p-nitrophenyl glycoside as substrate assessed as release of p-nitrophenol measured by spectrometric assay; parameters: species or system Sus scrofa
# [21] = organism: Bos taurus; experiment: Inhibition of bovine liver beta-glucosidase using p-nitrophenyl glycoside as substrate assessed as release of p-nitrophenol at 1000 uM measured by spectrometric assay relative to control; format: tissue-based
# [22] = target: T2, Sucrase-isomaltase, intestinal (Rattus norvegicus, UniProt P23739); experiment: Inhibition of rat intestinal isomaltase using p-nitrophenyl glycoside as substrate assessed as release of p-nitrophenol measured by spectrometric assay
# T2 sequence (P23739 1-1013 limits assumed): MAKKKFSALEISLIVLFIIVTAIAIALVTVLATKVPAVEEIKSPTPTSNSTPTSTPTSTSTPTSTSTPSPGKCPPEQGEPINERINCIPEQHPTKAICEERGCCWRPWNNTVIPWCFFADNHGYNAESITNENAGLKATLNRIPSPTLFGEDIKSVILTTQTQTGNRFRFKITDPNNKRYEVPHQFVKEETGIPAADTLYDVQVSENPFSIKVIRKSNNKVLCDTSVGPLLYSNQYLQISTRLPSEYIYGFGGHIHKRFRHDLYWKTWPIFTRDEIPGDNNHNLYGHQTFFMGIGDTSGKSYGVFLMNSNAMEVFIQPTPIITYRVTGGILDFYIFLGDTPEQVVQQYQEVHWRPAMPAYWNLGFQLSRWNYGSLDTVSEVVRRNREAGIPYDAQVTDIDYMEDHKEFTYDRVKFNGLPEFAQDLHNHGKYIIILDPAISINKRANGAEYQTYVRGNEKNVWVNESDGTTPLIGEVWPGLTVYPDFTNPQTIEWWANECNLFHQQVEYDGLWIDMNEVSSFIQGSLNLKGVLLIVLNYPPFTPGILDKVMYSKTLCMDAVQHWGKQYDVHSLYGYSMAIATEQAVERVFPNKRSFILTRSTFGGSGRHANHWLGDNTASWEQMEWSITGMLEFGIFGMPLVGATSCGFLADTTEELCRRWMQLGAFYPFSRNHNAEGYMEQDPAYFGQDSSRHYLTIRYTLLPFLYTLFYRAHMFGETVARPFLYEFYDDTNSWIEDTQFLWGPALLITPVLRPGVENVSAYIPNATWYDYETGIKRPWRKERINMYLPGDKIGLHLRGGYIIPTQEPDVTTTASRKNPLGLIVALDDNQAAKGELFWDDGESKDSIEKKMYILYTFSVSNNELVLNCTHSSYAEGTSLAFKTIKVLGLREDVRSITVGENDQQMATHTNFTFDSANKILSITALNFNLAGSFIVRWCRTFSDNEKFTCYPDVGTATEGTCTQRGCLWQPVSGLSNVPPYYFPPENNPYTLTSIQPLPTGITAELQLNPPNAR
# T2 sequence (P23739 1014-1841 limits assumed): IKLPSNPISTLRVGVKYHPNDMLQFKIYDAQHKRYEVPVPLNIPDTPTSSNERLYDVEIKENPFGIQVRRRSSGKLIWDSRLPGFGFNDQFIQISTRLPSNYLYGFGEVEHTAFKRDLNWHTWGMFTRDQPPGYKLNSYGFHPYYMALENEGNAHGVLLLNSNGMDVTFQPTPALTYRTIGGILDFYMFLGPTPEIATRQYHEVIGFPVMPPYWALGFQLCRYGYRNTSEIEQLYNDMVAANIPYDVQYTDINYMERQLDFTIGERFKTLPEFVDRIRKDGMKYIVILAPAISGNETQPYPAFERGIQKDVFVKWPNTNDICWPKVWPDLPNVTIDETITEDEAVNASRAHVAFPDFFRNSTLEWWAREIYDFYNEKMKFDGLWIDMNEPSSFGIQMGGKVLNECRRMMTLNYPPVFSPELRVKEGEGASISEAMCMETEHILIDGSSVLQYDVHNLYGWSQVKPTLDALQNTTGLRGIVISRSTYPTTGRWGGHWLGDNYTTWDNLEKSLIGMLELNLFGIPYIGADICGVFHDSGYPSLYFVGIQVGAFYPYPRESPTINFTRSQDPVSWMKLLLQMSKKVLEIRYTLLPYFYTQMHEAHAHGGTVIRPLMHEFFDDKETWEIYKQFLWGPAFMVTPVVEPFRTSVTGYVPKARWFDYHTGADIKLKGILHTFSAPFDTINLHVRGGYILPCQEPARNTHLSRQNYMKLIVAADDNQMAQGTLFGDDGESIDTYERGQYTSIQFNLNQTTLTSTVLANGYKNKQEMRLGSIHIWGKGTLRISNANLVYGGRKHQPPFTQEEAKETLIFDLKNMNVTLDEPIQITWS
# [23] = Inhibition of almond beta-glucosidase using p-nitrophenyl glycoside as substrate assessed as release of p-nitrophenol measured by spectrometric assay; parameters: species or system Prunus dulcis
# [24] = target: T3, Alpha-mannosidase (Canavalia ensiformis) (UniProt C0HJB3); experiment: Inhibition of jack bean alpha-mannosidase using p-nitrophenyl glycoside as substrate assessed as release of p-nitrophenol at 1000 uM measured by spectrometric assay relative to control
# T3 sequence (whole entry): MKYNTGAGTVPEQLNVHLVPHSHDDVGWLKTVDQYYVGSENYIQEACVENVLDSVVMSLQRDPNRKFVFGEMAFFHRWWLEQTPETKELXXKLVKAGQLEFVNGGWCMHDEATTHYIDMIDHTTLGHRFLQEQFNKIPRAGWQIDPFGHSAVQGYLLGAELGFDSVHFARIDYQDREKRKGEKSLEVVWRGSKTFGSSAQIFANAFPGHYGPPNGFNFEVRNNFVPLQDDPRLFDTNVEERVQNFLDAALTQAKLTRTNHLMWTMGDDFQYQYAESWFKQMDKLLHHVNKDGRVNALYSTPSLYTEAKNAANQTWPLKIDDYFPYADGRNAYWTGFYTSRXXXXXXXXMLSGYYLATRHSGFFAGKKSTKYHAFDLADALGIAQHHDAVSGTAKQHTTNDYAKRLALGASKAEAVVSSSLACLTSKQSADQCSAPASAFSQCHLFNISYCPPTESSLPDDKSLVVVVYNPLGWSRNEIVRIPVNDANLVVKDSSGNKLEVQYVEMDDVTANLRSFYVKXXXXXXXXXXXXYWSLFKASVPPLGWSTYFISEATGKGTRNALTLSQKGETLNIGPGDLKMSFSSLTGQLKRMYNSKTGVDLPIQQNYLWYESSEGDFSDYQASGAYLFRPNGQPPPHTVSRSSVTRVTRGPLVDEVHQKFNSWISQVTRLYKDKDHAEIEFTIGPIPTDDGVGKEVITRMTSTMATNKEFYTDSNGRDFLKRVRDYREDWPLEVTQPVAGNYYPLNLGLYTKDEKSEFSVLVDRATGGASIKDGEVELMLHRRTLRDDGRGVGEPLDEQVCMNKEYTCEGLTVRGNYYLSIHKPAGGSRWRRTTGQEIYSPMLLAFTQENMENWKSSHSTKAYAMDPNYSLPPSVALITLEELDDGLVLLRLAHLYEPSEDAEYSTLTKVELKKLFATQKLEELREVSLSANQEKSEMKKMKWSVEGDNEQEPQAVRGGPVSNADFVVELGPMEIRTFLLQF
# [25] = Inhibition of rat intestinal maltase using maltose as substrate assessed as release of D-glucose measured by spectrometric assay
# [26] = target: T2, Sucrase-isomaltase, intestinal; experiment: Inhibition of rat intestinal sucrase using p-nitrophenyl glycoside as substrate assessed as release of p-nitrophenol measured by spectrometric assay
# [27] = target: T4, Tissue alpha-L-fucosidase (Bos taurus) (UniProt Q2KIM0); experiment: Inhibition of bovine kidney alpha-L-fucosidase using p-nitrophenyl glycoside as substrate assessed as release of p-nitrophenol at 1000 uM measured by spectrometric assay relative to control; format: tissue-based
# T4 sequence (whole entry): T1 sequence (Q2KIM0 whole entry)
# [28] = Inhibition of Agrobacterium sp beta-glucosidase using p-nitrophenyl beta-glucoside as substrate assessed as release of p-nitrophenol measured by plate reader assay
# [29] = tested on: Oryza sativa; experiment: Inhibition of rice alpha-glucosidase using p-nitrophenyl glycoside as substrate assessed as release of p-nitrophenol at 1000 uM measured by spectrometric assay
Structure (SMILES),inhibition [1] [%],IC50 [3],inhibition [4] [%],IC50 [5],inhibition [6] [%],IC50 [7],IC50 [8],inhibition [10] [%],IC50 [11],IC50 [12],inhibition [13] [%],inhibition [15] [%],inhibition [17] [%],inhibition [18] [%],IC50 [19],IC50 [20],IC50 [22],IC50 [23],inhibition [24] [%],IC50 [25] [µM],also measured
CCCCCC[C@@]1(CO)NC[C@H](O)[C@@H](O)[C@@H]1O.Cl,1.5,Not Active,8,Not Active,2.5,Not Active,Not Active,11.6,Not Active,Not Active,13.2,17.2,2.8,3.4,Not Active,Not Active,Not Active,Not Active,6.7,272,IC50 ([2]; read-out: IC50): 257 µM; IC50 [9]: Not Active; IC50 [14]: Not Active; inhibition [16]: 24.8%; inhibition [21]: 15.7%; IC50 [26]: Not Active; inhibition [27]: 0.9%
C#Cc1ccc(C(=O)OCCCCCCN2C[C@H](O)[C@@H](O)[C@H](O)[C@H]2CO)cc1,–,–,–,–,–,–,–,–,–,–,–,–,–,–,–,–,–,–,–,–,IC50 [28]: 2200 nM
CCC[C@@]1(CO)NC[C@H](O)[C@@H](O)[C@@H]1O.Cl,2.7,Not Active,9.6,Not Active,19.5,Not Active,Not Active,0,Not Active,Not Active,2.3,42.1,4.9,2.7,Not Active,Not Active,Not Active,Not Active,13.8,134,IC50 ([2]; read-out: IC50): 82 µM; IC50 [9]: Not Active; IC50 [14]: Not Active; inhibition [16]: 15.4%; inhibition [21]: 9.1%; IC50 ([26]; read-out: IC50): 94 µM; inhibition [27]: 30.4%
CCCCCCCCCCC[C@@]1(CO)NC[C@H](O)[C@@H](O)[C@@H]1O.Cl,4.8,Not Active,1.6,Not Active,5.2,Not Active,Not Active,4.6,Not Active,Not Active,0,5.3,0,0,Not Active,Not Active,Not Active,Not Active,3.3,765,IC50 [2]: Not Active; IC50 ([9]; read-out: IC50): 100 µM; IC50 [14]: Not Active; inhibition [29]: 17.6%; inhibition [21]: 29.8%; IC50 [26]: Not Active; inhibition [27]: 1.1%
CCCCCCCC[C@@]1(CO)NC[C@H](O)[C@@H](O)[C@@H]1O.Cl,6,Not Active,3.3,Not Active,14.8,Not Active,Not Active,23.2,Not Active,Not Active,0.83,9.4,4.9,0,Not Active,Not Active,Not Active,Not Active,9.6,224,IC50 ([2]; read-out: IC50): 123 µM; IC50 [9]: Not Active; IC50 [14]: Not Active; inhibition [16]: 44.9%; inhibition [21]: 19%; IC50 [26]: Not Active; inhibition [27]: 5.5%
CCCCCCCCCCCC[C@@]1(CO)NC[C@H](O)[C@@H](O)[C@@H]1O.Cl,1.2,Not Active,0,Not Active,7.6,Not Active,Not Active,2.3,Not Active,Not Active,0,13.9,0.5,0,Not Active,Not Active,Not Active,Not Active,3.3,660,IC50 [2]: Not Active; IC50 ([9]; read-out: IC50): 17 µM; IC50 ([14]; read-out: IC50): 47 µM; inhibition [29]: 33.6%; IC50 [26]: Not Active; inhibition [27]: 0%
